Data: patent US20190110981A1, “Cannabinoid Patch” (LIFE TECH GLOBAL, LLC, priority 2017, published 2019)

Columns and labels:
[1] = In vitro transdermal flux, human cadaver skin and Franz diffusion cell; assay type: in vitro ADME; settings: for Flux over the course of about 20 hours: monolithic PIB patch with oil containing CBD/THC 1:1, Franz diffusion cell (FIG. 3)
Description: FIG. 1. In vitro cumulative flux (micrograms/cm^2) of cannabidiol (CBD) through skin versus time (hours).
FIG. 2. In vitro flux of tetrahydrocannabinol (THC) from ethanol/water, at each of the indicated ratios of ethanol/water.
The disclosure provides a graph of transdermal flux (FIG. 3). […] Alternatively, the oil contains CBD/THC in a 1:1 ratio (wt./wt.).
The following concerns reservoir patches. The composition inside the reservoir can have the consistency of a paste, but in an alternative embodiment, it can have the consistency of an oil, or it can have the consistency of a liquid, or it can have the consistency of a slurry. Parameters for FIG. 2 are as follows. Flux was allowed to occur for 24 hours, and FIG. 2 provides the value at 24 hours, […] The layers are 30 cm square and the hydrogel is one cm cubed or one milliliter. The layers have microporous membrane with […] pore size. The layers have occlusive heat seal around edges. There is a protective release liner. The embodiment can be made with or without silicone adhesive.

[2] = as measured at room temperature; cited from earlier work

CCCCCCCCCCCCN1CCCCCC1=O [azone, 1-dodecylazacycloheptane-2-one]
Effect of enhancer on transdermal delivery of CBD from PIB [1]: double

CCCCCc1cc(O)c2c(c1)OC(C)(C)[C@@H]1CCC(C)=C[C@@H]21 [THC, delta-9-tetrahydrocannabinol]
THC flux by solvent in reservoir patch ([1]; THC oil mixed with ethanol and with EtOH/water of different ratios): highest flux from pure ethanol
Flux over the course of about 20 hours ([1]; human cadaver skin): at least 1.0 micrograms per cm^2
THC flux from ethanol in reservoir patch relative to monolithic patch ([1]; reservoir patch, THC oil mixed with ethanol (FIG. 2)): 4 times
Cumulative flux of THC ([1]; reservoir patch, saturated ethanol/water about 60/40 with 25% THC oil, value at 24 hours (FIG. 2)): at least 50 micrograms THC per cm^2

C=C(C)[C@@H]1CCC(C)=C[C@H]1c1c(O)cc(CCCCC)cc1O [CBD, cannabidiol]
Flux of CBD from matrix with hemp oil of 92% CBD relative to adhesive matrix with crystalline CBD ([1]; PIB monolithic patch, 15% CBD oil vs 15% crystalline CBD (FIG. 1)): about 5 times
Flux over the course of about 20 hours ([1]; human cadaver skin): at least 4 micrograms per cm^2
Cumulative flux of CBD ([1]; over ten hours, dermal patch with PIB and about 15% CBD oil, human cadaver skin, Franz diffusion cell): at least 20 micrograms CBD per cm^2

O=S(=O)(O)CCN1CCN(CCS(=O)(=O)O)CC1 [PIPES]
pKa [2]: 6.8

CCCCCCCC/C=C\CCCCCCCC(=O)O [oleic acid]
Effect of enhancer on transdermal delivery of CBD from PIB [1]: double

O=S(=O)(O)CCNC1CCCCC1 [CHES]
pKa [2]: 9.5
